US20240317735A1, “HYDROISOQUINOLINE OR HYDRONAPHTHYRIDINE COMPOUNDS FOR THE TREATMENT OF AUTOIMMUNE DISEASE” (Hoffmann-La Roche Inc., priority 2020, published 2024)
pIC50: −log10 of the molar value.

Biological target: T1, human TLR8 (Homo sapiens, UniProt Q9NR97)
T1 construct: host or cells: HEK293 (HEK-Blue hTLR8)
T1 sequence (Q9NR97 27-1041): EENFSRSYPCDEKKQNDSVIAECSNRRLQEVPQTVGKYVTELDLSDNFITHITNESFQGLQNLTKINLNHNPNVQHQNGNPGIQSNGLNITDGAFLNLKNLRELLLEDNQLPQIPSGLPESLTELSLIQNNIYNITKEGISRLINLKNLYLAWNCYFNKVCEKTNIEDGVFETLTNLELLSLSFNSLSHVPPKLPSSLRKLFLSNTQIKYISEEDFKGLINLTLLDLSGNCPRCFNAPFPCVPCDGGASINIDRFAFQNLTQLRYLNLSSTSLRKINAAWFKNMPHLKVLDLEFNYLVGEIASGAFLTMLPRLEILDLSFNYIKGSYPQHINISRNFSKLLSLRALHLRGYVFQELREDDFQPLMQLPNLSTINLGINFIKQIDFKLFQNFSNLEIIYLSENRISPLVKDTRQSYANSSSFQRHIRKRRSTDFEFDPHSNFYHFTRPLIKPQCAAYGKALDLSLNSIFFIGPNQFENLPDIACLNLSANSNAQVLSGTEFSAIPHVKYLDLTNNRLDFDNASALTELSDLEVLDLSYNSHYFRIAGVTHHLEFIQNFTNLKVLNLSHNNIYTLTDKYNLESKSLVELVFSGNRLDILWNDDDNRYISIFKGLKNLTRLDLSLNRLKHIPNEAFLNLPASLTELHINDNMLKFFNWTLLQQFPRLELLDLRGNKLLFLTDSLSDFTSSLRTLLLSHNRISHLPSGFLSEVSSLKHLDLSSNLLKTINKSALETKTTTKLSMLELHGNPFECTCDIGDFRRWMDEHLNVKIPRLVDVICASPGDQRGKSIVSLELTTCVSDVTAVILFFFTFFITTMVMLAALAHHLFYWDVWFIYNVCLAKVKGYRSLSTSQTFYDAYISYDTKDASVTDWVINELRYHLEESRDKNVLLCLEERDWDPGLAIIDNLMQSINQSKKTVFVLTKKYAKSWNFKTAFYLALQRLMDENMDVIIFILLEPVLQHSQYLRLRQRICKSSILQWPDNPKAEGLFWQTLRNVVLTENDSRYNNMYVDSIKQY
Assay: HEK293-Blue-hTLR-8 cells assay (SEAP reporter, R848 stimulation)
Format: cell-based
Conditions: HEK293-Blue-hTLR8 cells, R848, 20 hrs; read-out: HEK/hTLR8 IC50
Description: The following tests were carried out in order to determine the activity of the compounds of formula (I) and (Ia) in HEK293-Blue-hTLR-7/8/9 cells assay.
A stable HEK293-Blue-hTLR-8 cell line was purchased from InvivoGen (Cat. #: hkb-htlr8, San Diego, California, USA). These cells were originally designed for studying the stimulation of human TLR8 by monitoring the activation of NF-κB. A SEAP (secreted embryonic alkaline phosphatase) reporter gene was placed under the control of the IFN-β minimal promoter fused to five NF-κB and AP-1-binding sites. The SEAP was induced by activating NF-κB and AP-1 via stimulating HEK-Blue hTLR8 cells with TLR8 ligands. Therefore the reporter expression was declined by TLR8 antagonist under the stimulation of a ligand, such as R848, for incubation of 20 hrs. The cell culture supernatant SEAP reporter activity was determined using QUANTI-Blue™ kit (Cat. #: rep-qb1, Invivogen, San Diego, Ca, USA) at a wavelength of 640 nm, a detection medium that turns purple or blue in the presence of alkaline phosphatase.
HEK293-Blue-hTLR8 cells were incubated at a density of 250,000˜450,000 cells/mL in a volume of 170 μL in a 96-well plate in Dulbecco's Modified Eagle's medium (DMEM) containing 4.5 g/L glucose, […] penicillin, […], […] Normocin, 2 mM L-glutamine, 10% (v/v) heat-inactivated fetal bovine serum with addition of 20 μL test compound in a serial dilution in the presence of final DMSO at 1% and 10 μL of 60 uM R848 in above DMEM, perform incubation under 37° C. in a C02 incubator for 20 hrs. Then 20 μL of the supernatant from each well was incubated with 180 μL Quanti-blue substrate solution at 37° C. for 2 hrs and the absorbance was read at 620-655 nm using a spectrophotometer. The signaling pathway that TLR8 activation leads to downstream NF-κB activation has been widely accepted, and therefore similar reporter assay was modified for evaluating TLR8 antagonist.

SMILES	pIC50
CO[C@@H]1CN(C2CCN(c3ccc4c(c3)[C@@H](C)CN(c3ccnc5c3cnn5C)C4)CC2)C[C@H]1N [Example 11, (3R,4R)-4-methoxy-1-[1-[(4R)-4-methyl-2-(1-methylpyrazolo[3,4-b]pyridin-4-yl)-3,4-dihydro-1H-isoquinolin-6-yl]-4-piperidyl]pyrrolidin-3-amine]	> 9.52
Cc1cc(N2Cc3ccc(OC[C@H]4CNCCN4)cc3[C@@H](C)C2)c2cnn(C)c2n1 [Example 30, (4R)-2-(1,6-dimethylpyrazolo[3,4-b]pyridin-4-yl)-4-methyl-6-[[(2R)-piperazin-2-yl]methoxy]-3,4-dihydro-1H-isoquinoline]	8.70
CC1CN(c2ccnc3c2cnn3C)Cc2ccc(N3CCC4(CCNCC4)CC3)cc21 (stereo not drawn) [Example 4, 3-[4-methyl-2-(1-methylpyrazolo[3,4-b]pyridin-4-yl)-3,4-dihydro-1H-isoquinolin-6-yl]-3,9-diazaspiro[5.5]undecane]	8.15
Cn1ncc2c(N3Cc4ccc(N5CCC6(CCNCC6)CC5)cc4C(C)(C)C3)ccnc21 [Example 6, 3-[4,4-dimethyl-2-(1-methylpyrazolo[3,4-b]pyridin-4-yl)-1,3-dihydroisoquinolin-6-yl]-3,9-diazaspiro[5.5]undecane]	7.74
Cc1cc(N2Cc3ccc(N4CCC5(CCNCC5)CC4)cc3C(C)C2)c2cnn(C)c2n1 (stereo not drawn) [Example 5, 3-[2-(1,6-dimethylpyrazolo[3,4-b]pyridin-4-yl)-4-methyl-3,4-dihydro-1H-isoquinolin-6-yl]-3,9-diazaspiro[5.5]undecane]	8.00
C[C@H]1CN(c2ccnc3c2cnn3C)Cc2ccc(N3CCC(N4CCNCC4)CC3)cc21 [Example 10, (4R)-4-methyl-2-(1-methylpyrazolo[3,4-b]pyridin-4-yl)-6-(4-piperazin-1-yl-1-piperidyl)-3,4-dihydro-1H-isoquinoline]	9.00
C[C@H]1CN(c2ccnc3c2cnn3C)Cc2ccc(N3CCNC(CO)C3)cc21 (stereo partly drawn) [Example 49, [4-[(4R)-4-methyl-2-(1-methylpyrazolo[3,4-b]pyridin-4-yl)-3,4-dihydro-1H-isoquinolin-6-yl]piperazin-2-yl]methanol]	8.70
C[C@H]1CN(c2ccnc3c2cnn3C)Cc2ccc(N3CCN(S(=O)(=O)C4CCNC4)CC3)cc21 (stereo partly drawn) [Example 33, (4R)-4-methyl-2-(1-methylpyrazolo[3,4-b]pyridin-4-yl)-6-(4-pyrrolidin-3-ylsulfonylpiperazin-1-yl)-3,4-dihydro-1H-isoquinoline]	7.82
C[C@H]1CN(c2ccnc3c2cnn3C)Cc2ccc(N3C[C@H]4CNCCN4C3=O)cc21 [Example 24, (8aR)-2-[(4R)-4-methyl-2-(1-methylpyrazolo[3,4-b]pyridin-4-yl)-3,4-dihydro-1H-isoquinolin-6-yl]-1,5,6,7,8,8a-hexahydroimidazo[1,5-a]pyrazin-3-one]	8.70
C[C@H]1CN(c2ccnc3c2cnn3C)Cc2ccc(OC[C@@H]3CNCCN3C)cc21 [Example 44, (4R)-4-methyl-2-(1-methylpyrazolo[3,4-b]pyridin-4-yl)-6-[[(2S)-1-methylpiperazin-2-yl]methoxy]-3,4-dihydro-1H-isoquinoline]	8.30
C[C@H]1CN(c2ccnc3c2cnn3C)Cc2ccc(N3C[C@@H]4CNCCN4C3=O)cc21 [Example 25, (8aS)-2-[(4R)-4-methyl-2-(1-methylpyrazolo[3,4-b]pyridin-4-yl)-3,4-dihydro-1H-isoquinolin-6-yl]-1,5,6,7,8,8a-hexahydroimidazo[1,5-a]pyrazin-3-one]	> 9.52
C[C@H]1CN(c2ccnc3c2cnn3C)Cc2ccc(N3CC4CNC[C@H]4C3=O)cc21 (relative stereo) [Example 17, cis-5-[(4R)-4-methyl-2-(1-methylpyrazolo[3,4-b]pyridin-4-yl)-3,4-dihydro-1H-isoquinolin-6-yl]-1,2,3,3a,6,6a-hexahydropyrrolo[3,4-c]pyrrol-4-one]	7.96
C[C@H]1CN(c2ccnc3c2cnn3C)Cc2ccc(N3CCN(C(=O)C4CNCCO4)CC3)cc21 (stereo partly drawn) [Example 12, morpholin-2-yl-[4-[(4R)-4-methyl-2-(1-methylpyrazolo[3,4-b]pyridin-4-yl)-3,4-dihydro-1H-isoquinolin-6-yl]piperazin-1-yl]methanone]	8.10

The remaining lines, values ahead:

pIC50	SMILES
9.00	CO[C@H]1CN(c2ccc3c(n2)[C@@H](C)CN(c2cc(C)nc4c2cnn4C)C3)CC[C@@H]1N [Example 65, (3S,4S)-3-methoxy-1-[(8S)-6-(1,6-dimethylpyrazolo[3,4-b]pyridin-4-yl)-8-methyl-7,8-dihydro-5H-1,6-naphthyridin-2-yl]piperidin-4-amine]
8.15	C[C@H]1CN(c2ccnc3c2cnn3C)Cc2ccc(N3C[C@H]4CCNC[C@H]4C3=O)cc21 (single isomer, unassigned) [Example 56]
9.30	Cc1cc(N2Cc3ccc(N4CCC(N(C)C)CC4)nc3[C@@H](C)C2)c2cnn(C)c2n1 [Example 60, N,N-dimethyl-1-[(8S)-6-(1,6-dimethylpyrazolo[3,4-b]pyridin-4-yl)-8-methyl-7,8-dihydro-5H-1,6-naphthyridin-2-yl]piperidin-4-amine]
8.30	C[C@H]1CN(c2ccnc3c2cnn3C)Cc2ccc(N3C[C@]4(CCNC4)CC3=O)cc21 (single isomer, unassigned) [Example 54]
8.10	COC[C@H]1CN(c2cc3c(cn2)CN(c2cc(C)nc4c2cnn4C)C[C@@H]3C)CCN1 [Example 81, (4R)-2-(1,6-dimethylpyrazolo[3,4-b]pyridin-4-yl)-4-methyl-6-[(3R)-3-(methoxymethyl)piperazin-1-yl]-3,4-dihydro-1H-2,7-naphthyridine]
9.30	Cc1cc(N2Cc3ccc(N4CCC(O)(CN(C)C)CC4)nc3[C@@H](C)C2)c2cnn(C)c2n1 [Example 61, 4-[(dimethylamino)methyl]-1-[(8S)-6-(1,6-dimethylpyrazolo[3,4-b]pyridin-4-yl)-8-methyl-7,8-dihydro-5H-1,6-naphthyridin-2-yl]piperidin-4-ol]
7.89	Cc1cc(N2Cc3cnc(N4CCNC5(CC5)C4)cc3[C@@H](C)C2)c2cnn(C)c2n1 [Example 75, (4R)-6-(4,7-diazaspiro[2.5]octan-7-yl)-2-(1,6-dimethylpyrazolo[3,4-b]pyridin-4-yl)-4-methyl-3,4-dihydro-1H-2,7-naphthyridine]
7.62	C[C@H]1CN(c2ccnc3c2cnn3C)Cc2ccc(N3C[C@@H]4CCNC[C@@H]4C3=O)cc21 (single isomer, unassigned) [Example 57]
